# Laboratory results as given in US6949521B2, “Therapeutic azide compounds” (priority 1995, dated 2005).
# Like-named read-outs stand apart in the source and are kept apart here.
# Experiment: Pharmacokinetics in mouse serum after iv and oral administration of cordycepin or its azide derivative
# Type: in vivo, mice
# Protocol: 100 mg/kg of cordycepin or the azide derivative of cordycepin were administered intravenously (iv) (dissolved in methylsulfoxide (20 mg/ml)), or orally (dissolved in 30% glycerin (8.3 mg/ml)). Three animals for each time point were sacrificed at 0.08, 0.25, 0.5, 0.75, 1.0, 1.5, 2.0, 3.0 and 4.0 h after drug administration. Blood (serum) was collected and immediately analyzed.
# An AzdU was used as an internal standard (20 μg/ml) to measure the azide derivative concentrations in serum. Tubes were vortexed and centrifuged at 9,000 rpm for 5 min.
# To neutralize, perchloric acid supernatant was transferred into a clean tube with 160 μl of concentrated sodium tetraborate solution (pH 6.5). Tubes were vortexed again and centrifuged at 12,000 rpm for 15 min. Samples were held at 0° C. during analysis.
# Chromatographic separations were carried out on a Shimadzy gradient HPLC system (Shimadzy Corporation, Kyoto, Japan), which was equipped with a Model SPD-10A UV detector, a Model L-10AS pump, a Model SIL-10A autosampler, a controller Model SCL-10A and a Model CR-501 reporting integrator. Chromatography was performed on an Alltech Hypersil ODS (5 μm particle size, 4.6×250 mm, Ailtech Associates, Deerfield, Ill.) to determine cordycepin and its metabolite. The azide derivative of cordycepin was analyzed on an Alltech Hypersil BDS column (5 μm particle size, 4.6×250 mm, Alltech Associates, Deerfield, Ill.).
# The mobile phase for cordycepin and metabolite analysis in serum consisted of 3% acetonitrile in 20 mM sodium borate and 10 mM EDTA (pH 6.5) at a flow of 1.4 ml/min and the mobile phase for azide derivative analysis in serum consisted of 3% acetonitrile 20 mM in potassium phosphate (pH 4.0) at a flow of 1.5 ml/min. The UV detector was set at 258 nm for analysis of cordycepin and metabolite and at 290 nm for the azide derivative.
# The limit of quantitation was 0.05 μg/ml for cordycepin and metabolite and 0.5 μg/ml for the azide derivative.
# Plasma concentration versus time data for nucleosides were analyzed by noncompartment methods. […] Prog. Biomed. (1983) 16:203-216.
# Absolute bioavailability (F) of the azide derivative was calculated from AUCor/AUCiv, where AUC values were determined from serum nucleoside concentration versus time data.
# Relative exposures for cordycepin and its metabolite in serum after or versus iv administration of the derivative were calculated from AUCor/AUCiv.
# [1] = female, NIH Swiss, mouse, in vivo, iv, 100 mg/kg
# [2] = female, NIH Swiss, mouse, in vivo, po, 100 mg/kg
# [3] = mouse serum, after iv azide derivative 100 mg/kg
# [4] = mouse serum, after oral azide derivative 100 mg/kg
compound,measurement,setting,value
"O=c1[nH]cnc2c1ncn2[C@@H]1O[C@H](CO)C[C@H]1O [Metabolite, 3′-deoxyinosine]",AUC(0-inf),[1],3680 ± 260 ng·h/mL
same,half-life,[1],30 min
same,AUC(0-inf),[2],5890 ± 590 ng·h/mL
same,detection in serum,[2],Neither 3′-deoxyinosine nor cordycepin were detected
same,half-life,[2],39 min
"Nc1ncnc2c1ncn2[C@@H]1O[C@H](CO)C[C@H]1O [Cordycepin, 3′-deoxyadenosine, reference compound]",AUC(0-inf),"female, NIH Swiss, in vivo, mouse serum, after iv azide derivative 100 mg/kg, read-out: AUC0→∞ iv",2170 ± 350 ng·h/mL
same,Cmax,"female, NIH Swiss, in vivo, mouse serum, after iv azide derivative 100 mg/kg, read-out: Cmax (maximal measured concentration) iv",3890 ± 1720 ng/mL
same,half-life,"female, NIH Swiss, in vivo, mouse serum, after iv azide derivative 100 mg/kg, read-out: T½ iv (converted)",14.4 min
same,AUC(0-inf),"female, NIH Swiss, in vivo, mouse serum, after oral azide derivative 100 mg/kg, read-out: AUC0→∞ oral",1630 ± 150 ng·h/mL
same,Cmax,"female, NIH Swiss, in vivo, mouse serum, after oral azide derivative 100 mg/kg, read-out: Cmax (maximal measured concentration) oral",1180 ± 600 ng/mL
same,half-life,"female, NIH Swiss, in vivo, mouse serum, after oral azide derivative 100 mg/kg, read-out: T½ oral (converted)",45.6 min
same,"time of detection of cordycepin in serum above 0.05 μg/ml, iv","female, NIH Swiss, mouse, in vivo, iv",≤ 1.5 h
same,"time of detection of cordycepin in serum above 0.05 μg/ml, oral","female, NIH Swiss, mouse, in vivo, po",≤ 3 h
same,detection in serum,[2],Neither 3′-deoxyinosine nor cordycepin were detected
same,re - relative exposure: AUC ratio oral vs. intravenous (AUCor/AUCiv),"mouse serum, after azide derivative 100 mg/kg",0.75
same,cordycepin in serum samples collected 10 min later,"mouse, in vivo, iv, 100 mg/kg",not recovered
same,cordycepin in serum samples collected at 5 min,"mouse, in vivo, iv, 100 mg/kg",trace amount
"[N-]=[N+]=Nc1ncnc2c1ncn2[C@@H]1O[C@H](CO)C[C@H]1O [Azide Deriv., N^6-azido-β-D-3′-deoxyribofuranosyl purine]",absolute bioavailability after oral administration,"mice, azide derivative",94%
same,AUC0→∞ iv,[3],47200 ± 4010 ng·h/mL
same,Cmax (maximal measured concentration) iv,[3],143000 ± 33400 ng/mL
same,T½ iv,[3],21.6 min
same,T½ iv,"mouse serum, after iv azide derivative 100 mg/kg, listed as azide derivative",21 min
same,AUC0→∞ oral,[4],44500 ± 2780 ng·h/mL
same,Cmax (maximal measured concentration) oral,[4],48200 ± 12300 ng/mL
same,T½ oral,[4],31.8 min
